Assay results as given in ChEMBL document CHEMBL5113419.
pKi: −log10 of the molar value. Activity calls are given as the source filed them. The rule behind the calls is not given here.

Tests used:
Homo sapiens = species: Homo sapiens; assay: Selectivity ratio of Ki for binding affinity to FXa (unknown origin) using Mes-DArg-Pro-Arg-AMC as substrate to Ki for binding affinity to N-terminal MRGS(His)6GSDDDDK-tagged Matriptase (unknown origin ) expressed in Escherichia coli assessed as inhibition constant using Mes-DArg-Pro-Arg-AMC as substrate
[1] = target: T1, Suppressor of tumorigenicity 14 protein (Homo sapiens, UniProt Q9Y5Y6); assay: Binding affinity to N-terminal MRGS(His)6GSDDDDK-tagged Matriptase (unknown origin) expressed in Escherichia coli assessed as inhibition constant using Mes-DArg-Pro-Arg-AMC as substrate
T1 sequence (Q9Y5Y6 whole entry): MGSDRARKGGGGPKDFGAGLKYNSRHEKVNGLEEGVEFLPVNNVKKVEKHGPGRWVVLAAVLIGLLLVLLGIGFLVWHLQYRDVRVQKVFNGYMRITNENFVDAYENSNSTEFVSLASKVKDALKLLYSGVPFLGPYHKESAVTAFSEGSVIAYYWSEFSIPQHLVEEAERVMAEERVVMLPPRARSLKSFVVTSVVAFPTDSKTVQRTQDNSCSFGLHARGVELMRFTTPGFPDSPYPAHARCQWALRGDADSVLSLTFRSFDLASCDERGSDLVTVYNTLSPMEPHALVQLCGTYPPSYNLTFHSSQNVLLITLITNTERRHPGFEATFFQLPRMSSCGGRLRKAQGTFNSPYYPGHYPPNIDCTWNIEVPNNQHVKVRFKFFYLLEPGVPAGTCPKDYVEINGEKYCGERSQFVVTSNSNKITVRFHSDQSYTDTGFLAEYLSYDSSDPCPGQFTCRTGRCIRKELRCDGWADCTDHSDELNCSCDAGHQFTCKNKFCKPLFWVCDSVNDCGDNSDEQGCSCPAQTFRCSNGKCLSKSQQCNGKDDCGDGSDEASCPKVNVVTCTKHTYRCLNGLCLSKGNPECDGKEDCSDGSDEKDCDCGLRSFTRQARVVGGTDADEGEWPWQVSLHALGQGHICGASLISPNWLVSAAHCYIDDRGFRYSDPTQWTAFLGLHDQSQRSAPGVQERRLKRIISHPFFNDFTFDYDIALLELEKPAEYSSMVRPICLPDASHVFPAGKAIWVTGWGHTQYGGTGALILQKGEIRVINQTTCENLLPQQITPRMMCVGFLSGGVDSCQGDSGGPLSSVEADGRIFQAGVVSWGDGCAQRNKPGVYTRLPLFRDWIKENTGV

Coagulation factor X = Coagulation factor X (Homo sapiens, UniProt P00742); assay: Binding affinity to FXa (unknown origin) using Mes-DArg-Pro-Arg-AMC as substrate
[2] = Selectivity ratio of Ki for binding affinity to bovine thrombin assessed as inhibition constant using tosyl-Gly-Pro-Arg-AMC as substrate to Ki for binding affinity to N-terminal MRGS(His)6GSDDDDK-tagged Matriptase (unknown origin) expressed in Escherichia coli assessed as inhibition constant using Mes-DArg-Pro-Arg-AMC as substrate; conditions: Homo sapiens
Prothrombin = Prothrombin (Bos taurus, UniProt P00735); assay: Binding affinity to bovine thrombin assessed as inhibition constant using tosyl-Gly-Pro-Arg-AMC as substrate
MDCK-II = assay: Cytotoxicity against MDCK-II cells assessed as reduction in cell viability at 50 uM measured for 24 hrs by Celltiter-glo luminescent assay; assay type: toxicity, cell-based, Canis lupus familiaris; conditions: dog
[3] = Binding affinity to bovine trypsin assessed as inhibition constant […]; parameters: species or system Bos taurus
Influenza A virus [4] = assay: Antiviral activity against Influenza A virus H9N2 infected in MDCK-II cells assessed as reduction in comet-shaped foci at 20 uM measured after 24 hrs by immunostaining based assay; assay type: functional, organism-based
Influenza A virus [5] = assay: Antiviral activity against Influenza A virus H9N2 infected in MDCK-II cells assessed as inhibition of viral replication measured after 24 hrs by immunostaining based assay; assay type: functional, organism-based; conditions: DDE = dose-dependent effect
Influenza A virus [6] = assay: Antiviral activity against Influenza A virus H9N2 infected in MDCK-II cells assessed as reduction in comet-shaped foci at 50 uM measured after 24 hrs by immunostaining based assay; assay type: functional, organism-based
Influenza A virus [7] = assay: Antiviral activity against Influenza A virus H9N2 infected in MDCK-II cells assessed as reduction in viral titer in supernatants at 5 to 50 uM measured after 24 hrs by plaque assay; assay type: functional, organism-based; conditions: dose 5-50 µM
Influenza A virus [8] = assay: Antiviral activity against Influenza A virus H9N2 infected in MDCK-II cells assessed as inhibition of viral replication at 5 uM measured after 24 hrs by immunostaining based assay; assay type: functional, organism-based

Chain of Coagulation factor X (P00742 41-179 limits assumed): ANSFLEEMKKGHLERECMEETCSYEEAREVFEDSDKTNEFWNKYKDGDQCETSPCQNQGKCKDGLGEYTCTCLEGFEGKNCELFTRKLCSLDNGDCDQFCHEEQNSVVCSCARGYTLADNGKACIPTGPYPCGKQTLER
Chain of Coagulation factor X (P00742 235-488 limits assumed): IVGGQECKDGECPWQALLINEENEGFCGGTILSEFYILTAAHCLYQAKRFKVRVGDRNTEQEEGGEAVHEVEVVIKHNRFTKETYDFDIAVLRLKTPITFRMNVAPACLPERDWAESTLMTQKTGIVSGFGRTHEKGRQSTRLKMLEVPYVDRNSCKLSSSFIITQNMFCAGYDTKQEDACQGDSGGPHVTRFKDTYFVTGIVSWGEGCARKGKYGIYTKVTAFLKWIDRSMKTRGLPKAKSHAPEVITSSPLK

Row | SMILES | Ratio Ki (Homo sapiens) | pKi [1] | pKi (Coagulation factor X) | Ratio Ki [2] | pKi (Prothrombin) | Activity (MDCK-II) | pKi [3] | Activity (Influenza A virus [4]) | Activity (Influenza A virus [5]) | Activity (Influenza A virus [6]) | Activity (Influenza A virus [7]) | Activity (Influenza A virus [8])
1 | CC(C)(C)NC(=O)NC1CCN(C(=O)[C@H](Cc2cccc(C(=N)N)c2)NS(=O)(=O)c2cccc(-c3cc(F)c(CO)c(F)c3)c2)CC1 | 21 | 7.62 | 6.30 | 492 | 4.93 | – | – | – | – | – | – | –
2 | CC(C)(C)NC(=O)NC1CCN(C(=O)[C@H](Cc2cccc(C(=N)N)c2)NS(=O)(=O)c2cccc(-c3ccc(CO)c(F)c3)c2)CC1 | 13 | 7.82 | 6.72 | 1530 | 4.64 | Toxic | 9.22 | Active | Dde | Active | Active | –
3 | CC(C)(C)NC(=O)NC1CCN(C(=O)[C@H](Cc2cccc(C(=N)N)c2)NS(=O)(=O)c2cccc(-c3ccc(N)nc3)c2)CC1 | – | 8.52 | 8.40 | 1420 | 5.37 | – | – | – | – | – | – | –
4 | CC(C)(C)NC(=O)NC1CCN(C(=O)[C@H](Cc2cccc(C(=N)N)c2)NS(=O)(=O)c2cccc(-c3ccc(F)c(CO)c3)c2)CC1 | 1 | 7.30 | 7.29 | 21 | 5.97 | – | – | – | – | – | – | –
5 | COc1ccc(-c2cccc(S(=O)(=O)N[C@@H](Cc3cccc(C(=N)N)c3)C(=O)N3CCN(C(=O)NC(C)(C)C)CC3)c2)c(OC)c1 | 0.1 | 6.98 | 7.89 | 0.7 | 7.14 | – | – | – | – | – | – | –
6 | COc1ccc(-c2cccc(S(=O)(=O)N[C@@H](Cc3cccc(C(=N)N)c3)C(=O)N3CCC(NC(=O)NC(C)C)CC3)c2)c(OC)c1 | 0.4 | 8.10 | 8.52 | 29 | 6.64 | – | – | – | – | – | – | –
7 | CC(C)(C)NC(=O)NC1CCN(C(=O)[C@H](Cc2cccc(C(=N)N)c2)NS(=O)(=O)c2cccc(-c3ccc(Cl)cc3Cl)c2)CC1 | 0.8 | 8.30 | 8.40 | 35 | 6.76 | – | – | – | – | – | – | –
8 | CC(C)(C)NC(=O)NC1CCN(C(=O)[C@H](Cc2cccc(C(=N)N)c2)NS(=O)(=O)c2cccc(-c3cccc(CO)c3)c2)CC1 | 0.6 | 7.23 | 7.48 | 8.3 | 6.31 | – | – | – | – | – | – | –
9 | COc1ccc(-c2cccc(S(=O)(=O)N[C@@H](Cc3cccc(C(=N)N)c3)C(=O)N3CCC(NC(=O)NC(C)(C)C)CC3)c2)c(OC)c1 | 0.7 | 8.52 | 8.70 | 600 | 5.74 | Toxic | – | Active | Dde | Active | Active | –
10 | COc1ccc(-c2cccc(S(=O)(=O)N[C@@H](Cc3cccc(C(=N)N)c3)C(=O)N3CCN(C(=O)NC4CCCCC4)CC3)c2)c(OC)c1 | 0.3 | 7.42 | 8.00 | 24 | 6.04 | Toxic | – | Active | Dde | Active | Active | –
11 | COc1ccc(-c2cccc(S(=O)(=O)N[C@@H](Cc3cccc(C(=N)N)c3)C(=O)N3CCN(C(=O)OC(C)(C)C)CC3)c2)c(OC)c1 | 3.1 | 7.77 | 7.28 | 0.7 | 7.92 | – | – | – | – | – | – | –
12 | CC(C)(C)NC(=O)NC1CCN(C(=O)[C@H](Cc2cccc(C(=N)N)c2)NS(=O)(=O)c2cccc(-c3cccc(C(=N)N)c3)c2)CC1 | 13 | 9.15 | 8.05 | 3640 | 5.59 | Toxic | 8.30 | Active | Dde | Active | Active | Active
13 | CNC(=O)NC1CCN(C(=O)[C@H](Cc2cccc(C(=N)N)c2)NS(=O)(=O)c2cccc(-c3ccc(OC)cc3OC)c2)CC1 | 0.9 | 7.59 | 7.64 | 3.4 | 7.05 | – | – | – | – | – | – | –
14 | CC(C)(C)NC(=O)NC1CCN(C(=O)[C@H](Cc2cccc(C(=N)N)c2)NS(=O)(=O)c2cccc(-c3ccc(CN)cc3)c2)CC1 | 2.5 | 8.40 | 8.00 | 138 | 6.26 | – | – | – | – | – | – | –
15 | CC(C)(C)NC(=O)NC1CCN(C(=O)[C@H](Cc2cccc(C(=N)N)c2)NS(=O)(=O)c2cccc(-c3ccc(CO)cc3)c2)CC1 | 5.5 | 7.96 | 7.22 | 1090 | 4.92 | – | – | – | – | – | – | –
16 | CC(C)(C)NC(=O)NC1CCN(C(=O)[C@H](Cc2cccc(C(=N)N)c2)NS(=O)(=O)c2cccc(-c3cccc(CN)c3)c2)CC1 | 0.1 | 9.00 | 10.00 | 1320 | 5.88 | – | – | – | – | – | – | –
17 | CC(C)Oc1ccc(-c2cccc(S(=O)(=O)N[C@@H](Cc3cccc(C(=N)N)c3)C(=O)N3CCC(NC(=O)NC(C)(C)C)CC3)c2)cc1 | 9.3 | 7.24 | 6.36 | 89 | 5.29 | – | – | – | – | – | – | –
18 | COCc1ccc(-c2cccc(S(=O)(=O)N[C@@H](Cc3cccc(C(=N)N)c3)C(=O)N3CCC(NC(=O)NC(C)(C)C)CC3)c2)cc1 | 20 | 8.05 | 6.75 | 199 | 5.75 | – | – | – | – | – | – | –
19 | CC(C)(C)NC(=O)NC1CCN(C(=O)[C@H](Cc2cccc(C(=N)N)c2)NS(=O)(=O)c2cccc(-c3ccc(C(=N)N)cc3)c2)CC1 | 105 | 9.10 | 7.08 | 561 | 6.35 | – | – | – | – | – | – | –
20 | CC(C)(C)NC(=O)NC1CCN(C(=O)[C@H](Cc2cccc(C(=N)N)c2)NS(=O)(=O)c2cccc(-c3ccc(COC(C)(C)C)cc3)c2)CC1 | 3.1 | 6.77 | 6.28 | 15 | 5.60 | – | – | – | – | – | – | –
21 | COc1ccc(-c2cccc(S(=O)(=O)N[C@@H](Cc3cccc(C(=N)N)c3)C(=O)N3CCN(C(=O)C(C)(C)C)CC3)c2)c(OC)c1 | 0.8 | 6.84 | 6.94 | 0.3 | 7.38 | – | – | – | – | – | – | –
22 | COc1ccc(-c2cccc(S(=O)(=O)N[C@@H](Cc3cccc(C(=N)N)c3)C(=O)N3CCN(C(=O)C4CCCCC4)CC3)c2)c(OC)c1 | 2.2 | 7.37 | 7.02 | 10 | 6.38 | – | – | – | – | – | – | –
23 | Cc1ccc(-c2cccc(S(=O)(=O)N[C@@H](Cc3cccc(C(=N)N)c3)C(=O)N3CCC(NC(=O)NC(C)(C)C)CC3)c2)cc1 | 4 | 8.15 | 7.55 | 59 | 6.39 | – | – | – | – | – | – | –
